From patent US20260306377A1, “ANTIMICROBIAL COMPOSITIONS CONTAINING A CATIONIC ANTIMICROBIAL AND AN ACIDIC GLYCOLOPID” (LANXESS CORPORATION, priority 2023, published 2026)

tested on: mixed bacterial inoculum and mixed fungal inoculum; test: challenge test, overall result (bacteria and fungi); format: cell-based; details: anionic xanthan gum lotion dosed with the substance(s)
Description: Preservative activity in representative formulations was evaluated by using a modification of the Personal Care Products Council (PCPC) protocol (Machtiger, et al. 2001. Determination of the Efficacy of Preservation of Non-Eye Area Water Miscible Cosmetic and Toiletry Formulations: Collaborative Study. J of AOAC International. 84:1, 101-109). The evaluation was conducted using a four week, two-cycle microbial preservative efficacy test (challenge test) at 25° C. to determine the preservative efficacy of each treatment.
Xanthan gum is commonly used as a natural rheological modifier in personal care products. The formulation below was made by heating the aqueous (A) and oil (B) phases separately to 75-80° C. The oil phase was then poured into the aqueous phase and mixed by an overhead mixer and a homogenizer. The oil-in-water emulsion was cooled to room temperature. Sodium hydroxide solution was used to adjust the pH.
Lotion formulation samples were dosed with certain test materials as shown further below and mixed thoroughly at room temperature, and the formulation samples were divided into two separate aliquots of 5 gram each. One aliquot was inoculated with 50 μl of a diluted bacterial pool, the second aliquot was inoculated with 50 μl of a diluted fungal pool as described below. Unpreserved product samples were included in the test as a growth control.
A mixed bacterial inoculum was prepared using 24-hour cultures of the test bacteria (Table 2) grown in trypticase soy broth (TSB). Equal volumes of the bacterial test strains were combined and diluted one to ten in phosphate buffer to obtain an inoculum of approximately 5×10^7 to 5×10^8 colony forming units per ml (cfu/ml). The test samples were inoculated with 1% of the mixed bacterial inoculum. A mixed fungal inoculum was prepared using cell suspensions of the yeast Candida albicans ATCC #10231 and the mold Aspergillus brasiliensis ATCC #16404 in phosphate buffer. Equal volumes of the fungal test strains were combined and diluted one to ten with phosphate buffer to obtain an inoculum of approximately 5×10^6 to 5×10^7 cfu/ml. The test samples were inoculated with […] of the mixed fungal inoculum.
The samples were subjected to microbial challenge at time zero and inoculated a second time after seven days. The number of microorganisms added to each sample was determined by a standard Most Probable Number (MPN) determination in Trypticase Soy Broth (TSB) for bacteria and Potato Dextrose Broth (PDB) for fungi. Samples were incubated at 25° C. for the test duration of four weeks. Samples were monitored for bacterial and fungal contamination after 2, 7, 14, 21, and 28 days. Samples challenged with bacteria were streak-plated onto Trypticase Soy Agar (TSA) and incubated at 30° C. for 24 hours. Samples challenged with fungi were streak-plated onto Potato Dextrose Agar (PDA) and incubated at 25° C. for 7 days. After incubation, plates were given a Growth Rating to determine the colony forming units per gram (CFU/g) present in each test sample at the testing time point. As is used by various challenge test methods, the passing criteria is more stringent for bacteria than for fungi. […]
For bacteria challenge testing, a composition was scored as “Pass” if the composition obtained a growth rating score caused by bacteria of 1 or less at days 21-28 of the testing period and was scored as “Fail” if the composition obtained a growth rating score caused by bacteria of 2 or more at days 21-28 of the testing period. […]

Structure (SMILES) | challenge test outcome (in words)
N=C(NCCCCCCNC(=N)NC(=N)Nc1ccc(Cl)cc1)NC(=N)Nc1ccc(Cl)cc1.O=C(O)[C@H](O)[C@@H](O)[C@H](O)[C@H](O)CO.O=C(O)[C@H](O)[C@@H](O)[C@H](O)[C@H](O)CO [CHD.G, Chlorhexidine digluconate] | none of the lotion formulations passed the challenge test
CCCCCCCC(=O)OCC(O)CO (centres unmarked) [GC, Glyceryl caprylate] | none of the lotion formulations passed the challenge test
CC(=O)c1ccc(O)cc1 [HAP, 4-Hydroxyacetophenone] | none of the lotion formulations passed the challenge test
CCCCCCCCCCCC(=O)N[C@@H](CCCN=C(N)N)C(=O)OCC.Cl [LAE, Ethyl lauroyl arginate HCl] | none of the lotion formulations passed the challenge test
O=C(O)c1ccccc1 [NaBz, Sodium benzoate] | none of the lotion formulations passed the challenge test
